According to US12497365B2, “4-pyridinyl formamide compound or derivative thereof, preparation method therefor, herbicidal composition and use thereof” (Qingdao Kingagroot Chemical Compound Co., Ltd., priority 2019, dated 2025):

How the values were obtained:
Experiment in all cases: Weeding effect in post-emergence stage
Type in all cases: in vivo
Conditions in all cases: active ingredient 2000 g/ha, 3 weeks after application, fresh weight control rate
Abutilon theophrasti = test system: Abutilon theophrasti
In short: (§1)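 Weeds sown in soil-filled pots under 0.5-2 cm cover were grown in a greenhouse and sprayed at the 2-3 leaf stage, 2 weeks after sowing. Compounds in acetone with Tween 80 and 1.5 liter/ha methyl oleate concentrate were applied at 2000, 1000, 500, 250 or 125 g/ha. Fresh weight control rate was scored after 3 weeks.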

[1] = test system: Amaranthus retroflexus L.
In short: as §1

Chenopodium album = test system: Chenopodium album
In short: as §1

Descurainia sophia = test system: Descurainia sophia
In short: as §1

| Structure (SMILES) | Weeding effect, activity level (growth control rate), Abutilon theophrasti (Abutilon theophrasti) | Weeding effect, activity level (growth control rate), Amaranthus retroflexus L. [1] | Weeding effect, activity level (growth control rate), Chenopodium album (Chenopodium album) | Weeding effect, activity level (growth control rate), Descurainia sophia (Descurainia sophia) |
| --- | --- | --- | --- | --- |
| Cn1nnnc1NC(=O)c1ccnc(-c2ccc(Cl)c(F)c2)c1Cl [Compound 1-91] | 5 (Level 5: growth control rate is above 85%) | 5 (Level 5: growth control rate is above 85%) | 5 (Level 5: growth control rate is above 85%) | 5 (Level 5: growth control rate is above 85%) |
| Cn1nnnc1NC(=O)c1ccnc(-c2ccc(F)c(Cl)c2)c1Cl [Compound 1-92] | 5 (Level 5: growth control rate is above 85%) | 5 (Level 5: growth control rate is above 85%) | 5 (Level 5: growth control rate is above 85%) | 5 (Level 5: growth control rate is above 85%) |
| Cn1nnnc1NC(=O)c1ccnc(-c2cccc(Cl)c2F)c1Cl [Compound 1-93] | 5 (Level 5: growth control rate is above 85%) | 5 (Level 5: growth control rate is above 85%) | 5 (Level 5: growth control rate is above 85%) | 5 (Level 5: growth control rate is above 85%) |
| Cn1nnnc1NC(=O)c1ccnc(-c2ccc(F)cc2Cl)c1Cl [Compound 1-94] | 5 (Level 5: growth control rate is above 85%) | 5 (Level 5: growth control rate is above 85%) | 5 (Level 5: growth control rate is above 85%) | 5 (Level 5: growth control rate is above 85%) |
| Cn1nnnc1NC(=O)c1ccnc(-c2ccc(Cl)cc2F)c1Cl [Compound 1-95] | 5 (Level 5: growth control rate is above 85%) | 5 (Level 5: growth control rate is above 85%) | 5 (Level 5: growth control rate is above 85%) | 5 (Level 5: growth control rate is above 85%) |
| Cn1nnnc1NC(=O)c1ccnc(-c2cc(Br)ccc2Br)c1Cl [Compound 1-96] | 5 (Level 5: growth control rate is above 85%) | 5 (Level 5: growth control rate is above 85%) | 5 (Level 5: growth control rate is above 85%) | 5 (Level 5: growth control rate is above 85%) |
| Cn1nnnc1NC(=O)c1ccnc(-c2cccc(Br)c2F)c1Cl [Compound 1-97] | 5 (Level 5: growth control rate is above 85%) | 5 (Level 5: growth control rate is above 85%) | 5 (Level 5: growth control rate is above 85%) | 5 (Level 5: growth control rate is above 85%) |
| COC(=O)c1cc(-c2nccc(C(=O)Nc3nnnn3C)c2Cl)ccc1Cl [Compound 1-98] | 5 (Level 5: growth control rate is above 85%) | 5 (Level 5: growth control rate is above 85%) | 5 (Level 5: growth control rate is above 85%) | 5 (Level 5: growth control rate is above 85%) |
| COc1ccc(-c2nccc(C(=O)Nc3nnnn3C)c2Cl)cc1C=O [Compound 1-99] | 5 (Level 5: growth control rate is above 85%) | 5 (Level 5: growth control rate is above 85%) | 5 (Level 5: growth control rate is above 85%) | 5 (Level 5: growth control rate is above 85%) |
| Cn1nnnc1NC(=O)c1ccnc(-c2cc(C(=O)O)cc([N+](=O)[O-])c2)c1Cl [Compound 1-100] | 5 (Level 5: growth control rate is above 85%) | 5 (Level 5: growth control rate is above 85%) | 5 (Level 5: growth control rate is above 85%) | 5 (Level 5: growth control rate is above 85%) |
| Cn1nnnc1NC(=O)c1ccnc(-c2ccc(Cl)cc2C(F)(F)F)c1Cl [Compound 1-101] | 5 (Level 5: growth control rate is above 85%) | 5 (Level 5: growth control rate is above 85%) | 5 (Level 5: growth control rate is above 85%) | 5 (Level 5: growth control rate is above 85%) |
| COc1ccc(-c2nccc(C(=O)Nc3nnnn3C)c2Cl)c(Cl)c1 [Compound 1-102] | 5 (Level 5: growth control rate is above 85%) | 5 (Level 5: growth control rate is above 85%) | 5 (Level 5: growth control rate is above 85%) | 5 (Level 5: growth control rate is above 85%) |
| COc1ccc(Cl)c(-c2nccc(C(=O)Nc3nnnn3C)c2Cl)c1 [Compound 1-103] | 5 (Level 5: growth control rate is above 85%) | 5 (Level 5: growth control rate is above 85%) | 5 (Level 5: growth control rate is above 85%) | 5 (Level 5: growth control rate is above 85%) |
| COc1ccc(-c2nccc(C(=O)Nc3nnnn3C)c2Cl)c(C)c1 [Compound 1-104] | 5 (Level 5: growth control rate is above 85%) | 5 (Level 5: growth control rate is above 85%) | 5 (Level 5: growth control rate is above 85%) | 5 (Level 5: growth control rate is above 85%) |
| COc1ccc(-c2nccc(C(=O)Nc3nnnn3C)c2Cl)c(OC)c1 [Compound 1-105] | 5 (Level 5: growth control rate is above 85%) | 5 (Level 5: growth control rate is above 85%) | 5 (Level 5: growth control rate is above 85%) | 5 (Level 5: growth control rate is above 85%) |
| Cn1nnnc1NC(=O)c1ccnc(-c2ccc(OCc3ccccc3)cc2F)c1Cl [Compound 1-106] | 5 (Level 5: growth control rate is above 85%) | 5 (Level 5: growth control rate is above 85%) | 5 (Level 5: growth control rate is above 85%) | 5 (Level 5: growth control rate is above 85%) |
| Cn1nnnc1NC(=O)c1ccnc(-c2ccc(Oc3ccccc3)c(Cl)c2)c1Cl [Compound 1-107] | 5 (Level 5: growth control rate is above 85%) | 5 (Level 5: growth control rate is above 85%) | 5 (Level 5: growth control rate is above 85%) | 5 (Level 5: growth control rate is above 85%) |
| Cn1nnnc1NC(=O)c1ccnc(-c2cc(-c3ccccc3)cc(-c3ccccc3)c2)c1Cl [Compound 1-108] | 5 (Level 5: growth control rate is above 85%) | 5 (Level 5: growth control rate is above 85%) | 5 (Level 5: growth control rate is above 85%) | 5 (Level 5: growth control rate is above 85%) |
| Cn1nnnc1NC(=O)c1ccnc(-c2cc(F)c(F)c(F)c2)c1Cl [Compound 1-109] | 5 (Level 5: growth control rate is above 85%) | 5 (Level 5: growth control rate is above 85%) | 5 (Level 5: growth control rate is above 85%) | 5 (Level 5: growth control rate is above 85%) |
| COc1c(Cl)ccc(-c2nccc(C(=O)Nc3nnnn3C)c2Cl)c1F [Compound 1-110] | 5 (Level 5: growth control rate is above 85%) | 5 (Level 5: growth control rate is above 85%) | 5 (Level 5: growth control rate is above 85%) | 5 (Level 5: growth control rate is above 85%) |
| Cn1nnnc1NC(=O)c1ccnc(-c2cccc3ccccc23)c1Cl [Compound 1-111] | 5 (Level 5: growth control rate is above 85%) | 5 (Level 5: growth control rate is above 85%) | 5 (Level 5: growth control rate is above 85%) | 5 (Level 5: growth control rate is above 85%) |
